The values that follow are results of earlier work, collected in US20220378803A1, “INJECTABLE COMPOSITIONS OF URSODEOXYCHOLIC ACID” (SHILPA MEDICARE LIMITED, priority 2019, published 2022).

On to `C[C@H](CCC(=O)O)[C@H]1CC[C@H]2[C@@H]3[C@@H](O)C[C@@H]4C[C@H](O)CC[C@]4(C)[C@H]3CC[C@]12C` [UDCA, ursodeoxycholic acid], for which the solubility in water entry is listed as “practically insoluble”.
